The values below are quoted from earlier work in patent US20130140210A1, “LOW-DOSED SOLID ORAL DOSAGE FORMS FOR HRT” (BAYER INTELLECTUAL PROPERTY GMBH, priority 2010, published 2013).

Each structure is given as a SMILES string.

The subject of this data set is moderate or severe hot flushes in menopausal women. Conditions: 2 mg E2.

As to `C[C@]12CC[C@@H]3c4ccc(O)cc4CC[C@H]3[C@@H]1CC[C@@H]2O` [E2, estradiol], the estrogen-related adverse events result is recorded as “increased estrogen-related adverse events”.
